From patent US10738041B2, “Ferroportin inhibitors” (Vifor (International) AG, priority 2015, dated 2020)

How the values were obtained:
[1] = biological target: T1, human Fpn (Homo sapiens, UniProt Q9NP59); assay: Biophysical Ferroportin-Hepcidin Binding Assay (fluorescence polarization); settings: average of multiple measurements; 1 μM human Fpn, 20 nM TMR-hepcidin; read-out: FP IC50
T1 construct: FLAG (C); made in house; host or cells: Pichia pastoris
T1 sequence (Q9NP59 1-571): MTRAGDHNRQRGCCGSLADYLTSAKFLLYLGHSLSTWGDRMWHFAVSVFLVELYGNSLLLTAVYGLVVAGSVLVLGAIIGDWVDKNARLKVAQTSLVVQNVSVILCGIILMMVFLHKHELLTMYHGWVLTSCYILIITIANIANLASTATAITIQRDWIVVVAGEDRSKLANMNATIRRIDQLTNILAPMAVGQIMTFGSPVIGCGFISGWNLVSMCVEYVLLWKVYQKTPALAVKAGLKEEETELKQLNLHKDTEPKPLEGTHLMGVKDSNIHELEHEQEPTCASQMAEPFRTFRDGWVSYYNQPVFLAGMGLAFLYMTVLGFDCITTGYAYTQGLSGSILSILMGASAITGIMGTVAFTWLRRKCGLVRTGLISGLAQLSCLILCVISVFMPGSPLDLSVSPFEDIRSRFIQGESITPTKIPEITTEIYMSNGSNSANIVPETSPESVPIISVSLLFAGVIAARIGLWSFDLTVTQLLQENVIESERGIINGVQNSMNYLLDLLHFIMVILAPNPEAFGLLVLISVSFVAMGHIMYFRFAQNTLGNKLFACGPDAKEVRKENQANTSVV
Protocol: This biophysical assay was developed to confirm inhibition of hepcidin binding to ferroportin (Fpn) more directly. Incubation of TMR-hepcidin with purified human Fpn isolated from Pichia pastoris yeast cells expressing human Fpn with a C-terminal FLAG affinity tag (Bonaccorsi di Patti, 2014) leads to increased fluorescence polarization (FP) of the TMR-hepcidin ligand. Small molecular weight Fpn inhibitors were tested for inhibition of binding of TMR-hepcidin to Fpn, as detected by dose-dependent decrease of the TMR FP signal, as described in detail below.
8 μl of serial dilutions of test compounds were added in duplicates to reach final Fpn and TMR-hepcidin concentrations of 1 μM and 20 nM, respectively. Plates were incubated for 90 minutes at room temperature and parallel (S) and perpendicular (P) fluorescence was measured in a Synergy H1 fluorescence reader (BioTek). FP values were calculated in mP according to the following formula.

[2] = biological target: T2, ferroportin (Fpn) (Mus musculus, UniProt Q9JHI9); assay: Hepcidin Internalization Assay (J774); format: cell-based; settings: average of multiple measurements; inhibition of TMR-hepcidin (25 nM) internalization into J774 cells; read-out: J774 IC50
T2 construct: host or cells: J774 mouse macrophage cell line, Fe(III)-NTA induced
T2 sequence (Q9JHI9 1-570): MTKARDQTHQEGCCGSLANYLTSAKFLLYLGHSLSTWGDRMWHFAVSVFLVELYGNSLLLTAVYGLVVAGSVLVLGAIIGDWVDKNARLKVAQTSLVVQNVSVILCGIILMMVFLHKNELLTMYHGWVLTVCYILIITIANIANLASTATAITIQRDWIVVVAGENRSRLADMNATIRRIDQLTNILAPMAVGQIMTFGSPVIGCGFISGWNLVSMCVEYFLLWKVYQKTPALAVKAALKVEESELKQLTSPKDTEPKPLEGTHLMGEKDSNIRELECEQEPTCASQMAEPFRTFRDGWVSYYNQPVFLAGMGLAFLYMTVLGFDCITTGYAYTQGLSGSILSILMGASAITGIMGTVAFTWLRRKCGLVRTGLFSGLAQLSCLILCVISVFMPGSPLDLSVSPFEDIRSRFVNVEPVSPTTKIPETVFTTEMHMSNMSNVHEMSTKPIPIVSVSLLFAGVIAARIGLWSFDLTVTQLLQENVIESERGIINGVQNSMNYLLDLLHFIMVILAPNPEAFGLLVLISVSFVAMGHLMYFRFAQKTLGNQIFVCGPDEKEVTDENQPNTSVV
Method in brief: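 Mouse J774 macrophages, loaded overnight with 200 μM Fe(III)NTA, incubated 2 h at 37 °C with test compounds and TMR-labeled hepcidin. Cell-associated TMR fluorescence, a proxy for hepcidin binding to Fpn and internalization, quantified by automated imaging with Hoechst nuclear counterstain after fixation; IC50 from log(inhibitor) vs. response fit, triplicates.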

[3] = biological target: T3, human Fpn-GFP fusion (Homo sapiens, UniProt Q9NP59); assay: Inhibition of ferroportin mediated iron export activity in an iron response assay (BLAzer); format: cell-based; settings: average of multiple measurements; HEK-293 cell line #354; read-out: BLAzer EC50
T3 construct: expressed in transfected cells; host or cells: HEK-293 cell line #354 (derivative of HEK-293 Tet-ON Advanced, Clontech)
T3 sequence (Q9NP59 1-571): T1 sequence (Q9NP59 1-571)
Description: Intracellular iron levels are indirectly measured in this assay by monitoring the activity of a beta-lactamase (BLA) reporter gene fused to the human ferritin promoter and the associated iron regulatory element (IRE) contained within the 5′ untranslated region of the ferritin mRNA. Expression of ferroportin (Fpn) in such a cell line leads to iron efflux and lower iron levels as reflected by lower activity of the reporter gene. On the other hand, inhibition of Fpn-mediated iron efflux results in elevated cellular iron levels which is detected as increased reporter gene activity. Small molecular weight Fpn inhibitor compounds were tested for dose-dependent effects in this in vitro iron response assay as described below.
The HEK-293 cell line #354 was generated by stable integration of (i) a human Fpn-GFP fusion construct inserted in a derivative of the doxycycline-inducible pTRE-Tight-BI plasmid (Clontech, Cat. 631068) and (ii) a human ferritin promoter-BLA reporter gene into a derivative of the HEK-293 Tet-ON Advanced cell line (Clontech). […] After overnight incubation, 10 μl/well of dilution series of the test compounds were added in quadruplicates and plates were further incubated overnight at 37° C. with 5% CQ. Cells were washed 3 times with HBSS leaving 25 μl per well. BLA activity was detected by adding 5 μl/well of the GeneBlazer reagent CCF4-AM (Invitrogen, Cat. K1085) to the cells. After incubation of the plates in the dark at 18° C. for 60 min., blue and green fluorescence signals were measured in a Safre2 fluorescence plate reader (Tecan) with excitation at 410 nm and emissions at 458 nm (blue) and 522 nm (green). The ratio of blue/green fluorescence as a measure for BLA activity was calculated and EC50 values were determined with the calculated blue/green fluorescence ratios as described for the hepcidin internalization assay.

O=C(NCc1ccncc1F)c1csc(CCNCc2nc3ccccc3[nH]2)n1 [Example 89]
IC50 [1]: 922 nM
IC50 [2]: 89 nM
EC50 [3]: 5050 nM

O=C(NCc1ccccc1)c1cccc(CCNCc2nc3ccccc3[nH]2)c1 [Example 67]
IC50 [1]: 3400 nM
IC50 [2]: 530 nM
EC50 [3]: 33500 nM

O=C(NCc1ncc(C(F)(F)F)cc1Cl)c1csc(CCNCc2nc3ccccc3[nH]2)n1 [Example 101]
IC50 [1]: 315 nM
IC50 [2]: 280 nM
EC50 [3]: 2920 nM

Cc1cnc(CNC(=O)c2csc(CCNCc3nc4ccccc4[nH]3)n2)c(C)c1 [Example 57]
IC50 [1]: 430 nM
IC50 [2]: 100 nM
EC50 [3]: 2110 nM

O=C(NCc1ncccc1Cl)c1ncn(CCNCc2nc3ccccc3[nH]2)n1 [Example 170]
IC50 [1]: 280 nM
IC50 [2]: 482 nM
EC50 [3]: 3960 nM

Cc1ccc2[nH]c(CNCCc3nc(C(=O)NCc4ccccc4)cs3)nc2c1 [Example 32]
IC50 [1]: 1210 nM
IC50 [2]: 2600 nM
EC50 [3]: 1870 nM

O=C(NC1CCCc2cccnc21)c1csc(CCNCc2nc3ccccc3[nH]2)n1 (stereo not shown) [Example 38]
IC50 [1]: 233 nM
IC50 [2]: 30 nM
EC50 [3]: 2980 nM

Cn1ccc(CNC(=O)c2csc(CCNCc3nc4ccccc4[nH]3)n2)n1 [Example 86]
IC50 [1]: 4960 nM
IC50 [2]: 480 nM
EC50 [3]: 22300 nM

O=C(NCc1ccccc1S(=O)(=O)N1CCOCC1)c1csc(CCNCc2nc3ccccc3[nH]2)n1 [Example 75]
IC50 [1]: 1830 nM
IC50 [2]: 530 nM
EC50 [3]: 6000 nM

O=C(NCc1ccccc1F)c1csc(CCNCc2nc3ccccc3[nH]2)n1 [Example 65]
IC50 [1]: 950 nM
IC50 [2]: 850 nM
EC50 [3]: 32300 nM

O=C(c1csc(CCNCc2nc3ccccc3[nH]2)n1)N1CCc2ncccc2C1 [Example 107]
IC50 [1]: 5740 nM
IC50 [2]: 1320 nM
EC50 [3]: 21000 nM

O=C(NCc1ncccc1C(F)(F)F)c1csc(CCNCc2nc3ccccc3[nH]2)n1 [Example 37]
IC50 [1]: 1900 nM
IC50 [2]: 810 nM
EC50 [3]: 7920 nM

Cn1ccnc1CNC(=O)c1csc(CCNCc2nc3ccccc3[nH]2)n1 [Example 64]
IC50 [1]: 1240 nM
IC50 [2]: 130 nM
EC50 [3]: 4530 nM

O=C(NCc1ncccc1F)c1cncc(CCNCCc2nc3c(F)cccc3[nH]2)c1 [compound 246]
IC50 [1]: 263 nM
IC50 [2]: 276 nM
EC50 [3]: 12900 nM

O=C(NCC1CCCCC1)c1csc(CCNCc2nc3ccccc3[nH]2)n1 [Example 13]
IC50 [1]: 530 nM
IC50 [2]: 1700 nM
EC50 [3]: 27000 nM

CN1CCN(c2ccccc2CNC(=O)c2csc(CCNCc3nc4ccccc4[nH]3)n2)CC1 [Example 68]
IC50 [1]: 4060 nM
IC50 [2]: 2500 nM
EC50 [3]: 10400 nM

O=C(NCc1ccccc1)c1csc(CCNCc2nc3cc(C(F)(F)F)ccc3[nH]2)n1 [Example 51]
IC50 [1]: 530 nM
IC50 [2]: 360 nM
EC50 [3]: 4470 nM

COc1cccnc1CNC(=O)c1csc(CCNCc2nc3ccccc3[nH]2)n1 [Example 59]
IC50 [1]: 270 nM
IC50 [2]: 50 nM
EC50 [3]: 1380 nM

O=C(NCc1ccccc1)c1csc(CCNCCc2nc3ccccc3[nH]2)n1 [Example 29]
IC50 [1]: 136 nM
IC50 [2]: 510 nM
EC50 [3]: 2530 nM

O=C(NCc1ccncn1)c1csc(CCNCc2nc3ccccc3[nH]2)n1 [Example 44]
IC50 [1]: 5340 nM
IC50 [2]: 1330 nM
EC50 [3]: 18300 nM

Cn1ccnc1CNCCc1nc(C(=O)NCc2ccccc2)cs1 [Example 2]
IC50 [1]: 10600 nM
IC50 [2]: 6300 nM
EC50 [3]: 1640 nM

O=C(NCc1ncc(F)cc1Cl)c1csc(CCNCc2nc3ccccc3[nH]2)n1 [Example 102]
IC50 [1]: 258 nM
IC50 [2]: 58 nM
EC50 [3]: 1850 nM

O=C(NCc1ncccc1F)c1cncc(CCNCCc2nc3ccccc3[nH]2)c1 [compound 229]
IC50 [1]: 43 nM
EC50 [3]: 4060 nM

O=C(NCc1ccccc1)c1csc(CCNCc2cc3ccccc3[nH]2)n1 [Example 24]
IC50 [2]: 2800 nM
EC50 [3]: 12800 nM

N#Cc1ccc2[nH]c(CCNCCc3nc(C(=O)NCc4ncccc4F)co3)nc2c1 [Example 265]
IC50 [2]: 70 nM
EC50 [3]: 2000 nM

O=C(Nc1ncccc1F)c1csc(CCNCc2nc3ccccc3[nH]2)n1 [Example 77]
IC50 [1]: 2810 nM
IC50 [2]: 350 nM

Cc1ccnc(CNC(=O)c2csc(CCNCc3nc4ccccc4[nH]3)n2)c1 [Example 106]
IC50 [1]: 4460 nM
IC50 [2]: 1520 nM

CC(C)(CNCCc1nc2ccccc2[nH]1)c1nc(C(=O)NCc2ncccc2F)cs1 [Example 242]
IC50 [1]: 27800 nM
IC50 [2]: 8920 nM

COc1ccc(CNC(=O)c2csc(CCNCc3nc4ccccc4[nH]3)n2)nc1 [Example 45]
IC50 [1]: 2100 nM
IC50 [2]: 440 nM

COc1ccc2[nH]c(CNCCc3nc(C(=O)NCc4ccccc4)cs3)nc2c1 [Example 50]
IC50 [1]: 1480 nM
IC50 [2]: 410 nM
